ChEMBL document CHEMBL1221387, “Prenylflavonoids from Glycyrrhiza uralensis and their protein tyrosine phosphatase-1B inhibitory activities” (Bioorg Med Chem Lett, 2010)

Each molecule was assayed against T1, Tyrosine-protein phosphatase non-receptor type 1 (Homo sapiens, UniProt P18031) (assay: Inhibition of human recombinant PTP1B assessed as p-nitorphenol production after 30 mins).
T1 sequence (P18031 whole entry): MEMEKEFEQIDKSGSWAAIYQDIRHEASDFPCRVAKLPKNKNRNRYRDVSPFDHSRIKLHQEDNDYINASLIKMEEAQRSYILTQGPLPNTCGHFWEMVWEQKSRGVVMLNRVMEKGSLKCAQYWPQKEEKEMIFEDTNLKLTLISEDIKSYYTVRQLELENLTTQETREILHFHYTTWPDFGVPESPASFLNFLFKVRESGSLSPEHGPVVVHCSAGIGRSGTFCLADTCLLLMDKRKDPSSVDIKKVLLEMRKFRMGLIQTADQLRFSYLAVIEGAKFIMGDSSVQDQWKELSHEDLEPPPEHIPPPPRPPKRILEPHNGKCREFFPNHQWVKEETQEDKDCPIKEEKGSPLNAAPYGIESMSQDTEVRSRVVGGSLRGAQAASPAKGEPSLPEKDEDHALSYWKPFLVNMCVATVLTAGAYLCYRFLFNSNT
COc1c(CC=C(C)C)c(O)cc2oc(-c3ccc(O)cc3O)cc12 [LICOCOUMARONE] showed an IC50 of 71.2 µM. CC(C)=CCc1cc(-c2coc3cc(O)cc(O)c3c2=O)cc(O)c1O [GLYCYRRHISOFLAVONE] gave an IC50 of 58.7 µM. CC(C)=CCc1cc2c(=O)cc(-c3ccc(O)cc3)oc2cc1O [LICOFLAVANONE A] showed an IC50 of 54.5 µM. COc1c(CC=C(C)C)c(O)cc(O)c1-c1oc2cc(O)ccc2c1C [GLYCYBENZOFURAN] gave an IC50 of 25.5 µM. Molecule COc1c(CC=C(C)C)c(O)cc2oc(=O)c(-c3ccc(O)cc3O)cc12 [GLYCYCOUMARIN] has an IC50 of 184 µM. Molecule COc1cc(O)cc2occ(-c3cc(O)c(O)c(CC=C(C)C)c3)c(=O)c12 [GLISOFLAVONE] has an IC50 of 27.9 µM. For CCCCCCCCCCCCCCCC(=O)C1=C(O)[C@@H](CO)OC1=O, the IC50 was 4.4 µM.
